Experimental data taken from ChEMBL document CHEMBL4483862, “Open-source discovery of chemical leads for next-generation chemoprotective antimalarials” (2018).

System: Plasmodium berghei
Test: Luciferase/luciferin-expressing antifolate-resistant parasites were used to infect a culture of HepG2 cells that were pre-incubated with compounds. Infected hepatocytes emit light due to the luciferase reaction. Assay results are presented as the percent inhibition of light emission compared to control. […]
Type: functional
Conditions: sporozoite; for IC50: read-out: LUCIFERASE INFECTION ASSAY - IC50; for IC90: read-out: LUCIFERASE INFECTION ASSAY - IC90

Row | Compound | IC50 | IC90
1 | Cc1c(Cl)cn2c(=O)cc(CN3CCN(c4ccccc4)CC3)nc2c1Cl | > 10 µM | > 10 µM
2 | Cc1cc(C)c(-c2csc(NC(=O)c3nnc(O)c4ccccc34)n2)c(C)c1 | 3.82 µM | 5.46 µM
3 | O=C1Nc2ccc([N+](=O)[O-])cc2C12NNc1ccccc1O2 (configuration not stated) | > 10 µM | > 10 µM
4 | CC(C)Cn1c(-c2cc([N+](=O)[O-])ccc2Cl)nc2c1c(=O)[nH]c(=O)n2Cc1ccccc1 | > 10 µM | > 10 µM
5 | CCOC(=O)C1=C(NC(=O)Nc2ccc(Cl)c(Cl)c2)Nc2ccccc2N=C1CC | > 10 µM | > 10 µM
6 | CN1/C(=C\C(=O)C[n+]2ccc3ccccc3c2)C(C)(C)c2ccccc21 | 1.05 µM | 1.83 µM
7 | CCOC(=O)c1c(-c2ccccc2)csc1NC(=O)Cn1ncc(Cl)c(Cl)c1=O | 3.35 µM | 4.1 µM
8 | Cc1ccc(-n2c(SCc3nc4ccccc4c(=O)o3)nnc2-c2ccccc2)cc1C | > 10 µM | > 10 µM
9 | Cn1c(N)c(C(=O)COC(=O)c2cc(-c3ccccc3)nc3ccc(Br)cc23)c(=O)n(C)c1=O | > 10 µM | > 10 µM
10 | Cc1c(-c2cc(-c3ccc(Cl)cc3)nc3ccccc23)oc2ccc(F)cc2c1=O | > 10 µM | > 10 µM
11 | COc1ccc(-c2nn(-c3ccccc3)cc2/C=C/C(=O)Nc2nc3c(C)cccc3s2)cc1OC | 6.8 µM | > 10 µM
12 | Cc1nn(Cc2ccccc2Cl)c(Cl)c1/C=C/C(=O)OC(C)C(=O)N1CCCc2ccccc21 (configuration not stated) | > 10 µM | > 10 µM
13 | Cc1sc(NC(=O)Cc2coc3cc4c(cc23)CCC4)nc1-c1ccc(Cl)cc1 | > 10 µM | > 10 µM
14 | O=C(/C=C/c1cccc(NC(=O)c2ccccc2Cl)c1)c1ccc2c(c1)-c1ccccc1C2 | > 10 µM | > 10 µM
15 | CC(C)CCNC(=O)NC(=O)CSc1nn(-c2ccc(F)cc2)c(=S)s1 | > 10 µM | > 10 µM
16 | CC(C)[C@H](NC(=O)c1ccc(C(C)(C)C)cc1)C(=O)Nc1nc2ccccc2[nH]1 | > 10 µM | > 10 µM
17 | Cc1ccc2cc(COC(=O)c3cc4c(s3)CCC(C)C4)c(Cl)nc2c1 (configuration not stated) | > 10 µM | > 10 µM
18 | Cc1ccc(-c2nnc(SCC(=O)N3N=C(c4ccc5ccccc5c4)CC3c3ccccc3)[nH]2)cc1 (configuration not stated) | > 10 µM | > 10 µM
19 | COc1ccc(-n2c(C)cc(C(=O)COC(=O)[C@@H](NS(=O)(=O)c3ccc4c(c3)OCCO4)C(C)C)c2C)cc1 | > 10 µM | > 10 µM

Row | Compound | IC50 | IC90
20 | COC(=O)c1sc(NC(=O)COC(=O)C2Cc3ccccc3CN2S(=O)(=O)c2cccs2)c(C(=O)OC)c1C (configuration not stated) | > 10 µM | > 10 µM
21 | Cc1cc(NC(=O)CSc2ncc(-c3ccc(Cl)cc3)n2-c2ccccc2C)no1 | 9.42 µM | > 10 µM
22 | CCOc1ccc(-n2c(SCC(=O)c3c(N)n(C)c(=O)n(C)c3=O)nnc2-c2ccccc2Cl)cc1 | 3.28 µM | 3.67 µM
23 | O=C(COC(=O)COc1ccc2c3c(c(=O)oc2c1)CCC3)Nc1ccc(F)c(F)c1F | > 10 µM | > 10 µM
24 | Cc1nn(-c2ccc(F)cc2)c(C)c1/C=C/C(=O)OCC(=O)Nc1cc(S(=O)(=O)N2CCOCC2)ccc1Cl | > 10 µM | > 10 µM
25 | CCCCN1C(=O)c2ccc(C(=O)C(C#N)c3nc4ccccc4[nH]3)cc2C1=O (configuration not stated) | > 10 µM | > 10 µM
26 | Cc1cnc(NC(=O)c2ccc(Cl)c(S(=O)(=O)N(Cc3ccccc3)c3ccccc3Cl)c2)s1 | > 10 µM | > 10 µM
27 | CCc1c(C)sc2nc(SCC(=O)Nc3cc(C)on3)n(-c3ccc(O)cc3C)c(=O)c12 | 3.89 µM | 8.83 µM
28 | Cc1cc(C(=O)CSc2nc3cc([N+](=O)[O-])ccc3n2-c2ccccc2)c(C)n1Cc1ccco1 | > 10 µM | > 10 µM
29 | O=C(COC(=O)/C=C/c1cn(-c2ccccc2)nc1-c1ccc(Cl)cc1)NC(=O)NC1CCCC1 | 9.03 µM | > 10 µM
30 | Cc1cc(C(=O)C(C)OC(=O)c2ccc(S(C)(=O)=O)c([N+](=O)[O-])c2)c(C)n1-c1ccc(Cl)cc1 (configuration not stated) | > 10 µM | > 10 µM
31 | CCCCNS(=O)(=O)c1ccc2nc(SCc3cccc(OC)c3)[nH]c2c1 | > 10 µM | > 10 µM
32 | Cc1noc(C)c1COc1ccc(C(=O)OCC(=O)NC(C)C23CC4CC(CC(C4)C2)C3)cc1 (configuration not stated) | > 10 µM | > 10 µM
33 | COc1ccc(NC(=O)C2C(=S)NC(=N)C(C#N)C2c2ccc(Cl)cc2)cc1 (configuration not stated) | > 10 µM | > 10 µM
34 | COc1ccc(-n2c(C)cc(/C=C(\C#N)C(=O)OCC(=O)Nc3ccc(Cl)c(C(F)(F)F)c3)c2C)cc1 | > 10 µM | > 10 µM
35 | CCC(C)c1ccc(-c2cc(C(=O)OCC(=O)N3c4ccccc4NC(=O)C3(C)C)c3ccccc3n2)cc1 (configuration not stated) | 8.86 µM | > 10 µM
36 | Cn1c(N)c(C(=O)COC(=O)c2oc3ccccc3c2CSC2CCCCC2)c(=O)n(C)c1=O | > 10 µM | > 10 µM
37 | CCn1c(C)nc2cc(C(=O)NNC(=O)c3cc(=O)[nH]c4ccccc34)ccc21 | > 10 µM | > 10 µM
38 | C=CCN(c1ccccc1)S(=O)(=O)c1cc(C(=O)NCc2ccc3c(c2)OCO3)ccc1Cl | > 10 µM | > 10 µM

Row | Compound | IC50 | IC90
39 | CCOC(=O)C1=C(CSc2nc(-c3ccc(C)cc3)c(-c3ccc(C)cc3)[nH]2)NC(=O)NC1C (configuration not stated) | > 10 µM | > 10 µM
40 | Cc1nnnn1/C(=C\c1ccccc1)C(=O)OCCOc1ccccc1Cl | > 10 µM | > 10 µM
41 | O=C(/C=C/c1cn(-c2ccccc2)nc1-c1ccc(F)cc1)NCC1(N2CCCCC2)CCCCC1 | > 10 µM | > 10 µM
42 | COc1ccc(/C=C(\C#N)c2n[nH]c(=O)c3ccccc23)cc1 | 4.17 µM | > 10 µM
43 | CCCCn1c(SCC(=O)Nc2cc(C(F)(F)F)ccc2N2CCOCC2)nc2ccccc21 | > 10 µM | > 10 µM
44 | CC(C)(c1ccccc1)c1ccc(OCC(O)CNCCSc2ccc(Br)cc2)cc1 (configuration not stated) | > 10 µM | > 10 µM
45 | CC(C)c1nc(-c2c(N)n(Cc3ccccc3)c(=O)n(C)c2=O)sc1C(=O)c1cc(F)ccc1F | 9.55 µM | > 10 µM
46 | Cc1ccc(S(=O)(=O)N(C)Cc2ccc(-c3nnc4n3-c3ccccc3SC4)cc2)cc1 | 3.08 µM | > 10 µM
47 | COc1ccc(-c2csc(NC(=O)c3cc4cc5ccc(OC)cc5nc4s3)n2)cc1 | > 10 µM | > 10 µM
48 | O=C(O)C1CC=CCC1C(=O)NN=c1nc[nH]c2ccccc12 (configuration not stated) | > 10 µM | > 10 µM
49 | O=C(CCN1c2ccccc2Sc2ccccc21)N1CCCS/C1=N\c1ccccc1 | > 10 µM | > 10 µM
50 | CSc1ccc(/C=C2\SC(=O)N(CCNC(=O)c3nc4nccc(C)n4n3)C2=O)cc1 | > 10 µM | > 10 µM
51 | CCCCn1nc(C(=O)Nc2cc(S(=O)(=O)N(CC)CC)ccc2N2CCOCC2)c2ccccc2c1=O | > 10 µM | > 10 µM
52 | CCNC(=S)N/N=C1\C(=O)Nc2ccc(C(C)C)cc21 | 4.21 µM | 7.94 µM
53 | O=c1c(Cl)c(Cl)cnn1CCOc1cccc(Br)c1 | > 10 µM | > 10 µM
54 | COc1ccc(Cl)cc1NC(=O)CN(C)c1nc(-c2cccnc2)nc2sc3c(c12)CCCC3 | > 10 µM | > 10 µM
55 | OC(CNC1CCCc2ccccc21)COC(c1ccc(F)cc1)c1ccc(F)cc1 (configuration not stated) | > 10 µM | > 10 µM
56 | COc1ccccc1NS(=O)(=O)c1ccc2oc(Nc3ccc(Cl)c(C(F)(F)F)c3)nc2c1 | > 10 µM | > 10 µM
